Measurements published in ChEMBL document CHEMBL1137776, “Structural assessment and biological evaluation of two N3S bombesin derivatives” (J Med Chem, 2009).

Molecular target: Gastrin-releasing peptide receptor (Homo sapiens, UniProt P30550)
Test: Displacement of [125I-Tyr4]BN form BB2 receptor in human PC3 cells
Type: cell-based, PC-3

Chain of Gastrin-releasing peptide receptor (P30550 whole entry): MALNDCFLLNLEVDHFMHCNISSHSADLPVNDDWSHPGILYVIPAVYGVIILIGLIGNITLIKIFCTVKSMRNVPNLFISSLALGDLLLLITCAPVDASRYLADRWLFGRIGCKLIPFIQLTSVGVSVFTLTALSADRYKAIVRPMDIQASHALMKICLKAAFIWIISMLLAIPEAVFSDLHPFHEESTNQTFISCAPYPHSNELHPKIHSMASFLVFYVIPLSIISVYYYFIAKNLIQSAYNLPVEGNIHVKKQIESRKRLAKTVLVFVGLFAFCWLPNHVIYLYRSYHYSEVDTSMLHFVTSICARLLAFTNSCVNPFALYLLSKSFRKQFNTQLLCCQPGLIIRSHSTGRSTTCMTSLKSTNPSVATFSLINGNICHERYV

IC50 [nM]	SMILES
0.59	CSCC[C@H](NC(=O)[C@H](CC(C)C)NC(=O)[C@H](Cc1cnc[nH]1)NC(=O)CNC(=O)[C@@H](NC(=O)[C@H](C)NC(=O)[C@H](Cc1c[nH]c2ccccc12)NC(=O)[C@H](CCC(N)=O)NC(=O)[C@H](CC(N)=O)NC(=O)CNC(=O)[C@H](CC(C)C)NC(=O)[C@H](CCCNC(=N)N)NC(=O)[C@H](CCC(N)=O)NC(=O)CCCCCNC(=O)[C@H](CS)NC(=O)CNC(=O)CN)C(C)C)C(N)=O
1.45	CSCC[C@H](NC(=O)[C@H](CC(C)C)NC(=O)[C@H](Cc1cnc[nH]1)NC(=O)CNC(=O)[C@@H](NC(=O)[C@H](C)NC(=O)[C@H](Cc1c[nH]c2ccccc12)NC(=O)[C@H](CCC(N)=O)NC(=O)CCCCCNC(=O)[C@H](CS)NC(=O)CNC(=O)CN)C(C)C)C(N)=O
